Results published in patent US20240408271A1, “Functionalized Linkers in Responsive Biomaterials” (priority 2021, published 2024).

Legend:
[1] = system: MC3T3-E1 pre-osteoblast cells
Description: FIG. 14A is a graph showing in vitro testing with MC3T3-E1 pre-osteoblast cells to establish cytotoxicity of hydrogen peroxide.
FIG. 14B is a graph showing in vitro testing with MC3T3-E1 pre-osteoblast cells to establish cytotoxicity of ethyl pyruvate.
(§1) As shown in FIGS. 14A and 14B, in vitro cytotoxicity profiles were first established for H2O2 and ethyl pyruvate with MC3T3-E1 pre-osteoblast cells.

[2] = system: MC3T3-E1 cells; type: cell-based; details: MC3T3-E1, + 1 mM H2O2
Description: FIG. 14C is a graph showing a cell saving study capability test of released ethyl pyruvate and degraded ethyl pyruvate.
as §1

[3] = cited from earlier work
[4] = EPTK degradation and ethyl pyruvate release in H2O2 (NMR, HPLC); type: physicochemical
Description: FIG. 13B is an NMR spectrum of the thioketal peak after three days of degradation in varying ROS concentrations
A new thioketal linker was synthesized containing the small molecule therapeutic ethyl pyruvate (FIG. 12).

## CCOC(=O)C(C)=O [ethyl pyruvate]
[1]; mouse
  dose at which toxicity is displayed: ≥ 10 mM
[2]
  protection of cells from oxidative toxicity: robust protection

## Cc1ccc(C(=O)c2ccc(CC(=O)O)n2C)cc1 [tolmetin]
[3]
  Log P: 2.07

## OO [H2O2, hydrogen peroxide]
[1]; dose of 1 mM, over 24 hrs, MC3T3-E1
  cell death: ~50%

## ethyl pyruvate thioketal [EPTK]
[2]
  protection of cells from oxidative toxicity: some inherent antioxidant protection
[4]; 200 mM H2O2 for 48 hrs, HPLC
  release of intact ethyl pyruvate: intact ethyl pyruvate matching the original drug's character was released
[4]; escalating doses of H2O2, NMR, three days
  degradation of thioketal bond: dose-dependent degradation
[4]; increasing doses of ROS
  rate of ethyl pyruvate release: increased the rate of ethyl pyruvate release

## CC(=O)[C@H]1CC[C@H]2[C@@H]3CCC4=CC(=O)CC[C@]4(C)[C@H]3CC[C@]12C [progesterone]
[3]
  Log P: 3.78
